# According to publication PMC7125129, “Anti-HIV agent azidothymidine decreases Tet(X)-mediated bacterial resistance to tigecycline in Escherichia coli” (Communications Biology, 2020):
# Read-outs that look alike come from different tables or passages of the source.
# What was measured:
# [1] = test system: T1, E. fergusonnii 1C4-6 (tet(X4)); experiment: organism not typed; parameters: Broth microdilution MIC, bacterial growth inhibition in Mueller-Hinton broth; details: read-out: MIC (μg/mL)
# T1 construct: 1C4-6 (tet(X4))
# Experimental: (§1) Bacterial and chemical reagents Sequential culturing of E. coli ATCC 25922 in the presence of subinhibitory levels of tigecycline, azidothymidine, or the combination. After 24 h co-incubation, any cultures that grew at higher than the MIC levels were passaged on drug free MHA plates and the MIC was then determined by broth microdilution. This serial passaging was repeated daily for 30 days. To further evaluate the synergistic activity between tigecycline and three candidates, standard checkerboard microdilution in E. coli B3-1 was performed. […] Thus, we next focused our insights on the potentiation potency of azidothymidine with tigecycline. We first evaluated the stability of the azidothymidine-tigecycline combination in the presence of salt ions and serum, which are two critical factors that affect the in vivo efficacy of drugs[20],[21]. […] However, addition of divalent cations such as Ca^2+ and Mg^2+ (10 mM) abolished its potentiation activity, but EDTA could augment the synergistic effect (Supplementary Fig. 2). Considering that divalent cations and EDTA are associated with membrane permeability, we speculated that entrance of two drugs into bacteria contribute to their activity. Next, we assessed the potency of this combination in a panel of clinical isolates from animals and environmental samples (Supplementary Tables 2 and 3). […]
# [2] = test system: T2, E. brevis S1-3 (tet(X3)); experiment: organism not typed; parameters: Broth microdilution MIC, bacterial growth inhibition in Mueller-Hinton broth; details: read-out: MIC (μg/mL)
# T2 construct: S1-3 (tet(X3))
# Experimental: as §1
# [3] = molecular target: T3, Tet(X4) (Escherichia coli, UniProt A0A3T0V9Y5); experiment: purified enzyme inhibition assay, tigecycline absorbance at […] nm; type: biochemical
# T3 construct: gene mtr-1
# [4] = test system: T4, E. coli B2 (NDM-5 + MCR-1); experiment: microbe, parasite or virus in culture; parameters: Broth microdilution MIC, bacterial growth inhibition in Mueller-Hinton broth; details: Escherichia coli, read-out: MIC (μg/mL)
# T4 construct: B2
# Experimental: (§2) Bacterial and chemical reagents Sequential culturing of E. coli ATCC 25922 in the presence of subinhibitory levels of tigecycline, azidothymidine, or the combination. After 24 h co-incubation, any cultures that grew at higher than the MIC levels were passaged on drug free MHA plates and the MIC was then determined by broth microdilution. This serial passaging was repeated daily for 30 days. To further evaluate the synergistic activity between tigecycline and three candidates, standard checkerboard microdilution in E. coli B3-1 was performed. […] Thus, we next focused our insights on the potentiation potency of azidothymidine with tigecycline. We first evaluated the stability of the azidothymidine-tigecycline combination in the presence of salt ions and serum, which are two critical factors that affect the in vivo efficacy of drugs[20],[21]. […] However, addition of divalent cations such as Ca^2+ and Mg^2+ (10 mM) abolished its potentiation activity, but EDTA could augment the synergistic effect (Supplementary Fig. 2). Considering that divalent cations and EDTA are associated with membrane permeability, we speculated that entrance of two drugs into bacteria contribute to their activity. Next, we assessed the potency of this combination in a panel of clinical isolates from animals and environmental samples (Supplementary Tables 2 and 3). […] To investigate whether this potentiation is also applicable in Tet(X)-negative bacteria, standard ATCC sensitive bacteria and other E. coli isolates with MIC values of ≤1 μg mL^−1 for tigecycline were tested.
# [5] = test system: T5, Salmonella enterica ATCC 13076; experiment: microbe, parasite or virus in culture; parameters: Broth microdilution MIC, bacterial growth inhibition in Mueller-Hinton broth; details: ATCC13076, read-out: MIC (μg/mL)
# T5 construct: ATCC 13076
# Experimental: as §2
# [6] = test system: T6, Enterococcus faecalis VRE A4; experiment: microbe, parasite or virus in culture; parameters: Broth microdilution MIC, bacterial growth inhibition in Mueller-Hinton broth; details: read-out: MIC (μg/mL)
# T6 construct: VRE A4
# Experimental: as §2
# [7] = test system: T7, E. coli B9-1 (tet(X4)); experiment: microbe, parasite or virus in culture; parameters: Broth microdilution MIC, bacterial growth inhibition in Mueller-Hinton broth; details: Escherichia coli, read-out: MIC (μg/mL)
# T7 construct: B9-1
# Experimental: as §2
# [8] = test system: T8, E. coli B8-1 (tet(X4)); experiment: microbe, parasite or virus in culture; parameters: Broth microdilution MIC, bacterial growth inhibition in Mueller-Hinton broth; details: Escherichia coli, read-out: MIC (μg/mL)
# T8 construct: B8-1
# Experimental: as §2
# [9] = test system: T9, Staphylococcus aureus MRSA 1518; experiment: microbe, parasite or virus in culture; parameters: Broth microdilution MIC, bacterial growth inhibition in Mueller-Hinton broth; details: Staphylococcus aureus, MRSA, read-out: MIC (μg/mL)
# T9 construct: 1518
# Experimental: as §2
# [10] = test system: T10, E. coli G6 (NDM-5); experiment: microbe, parasite or virus in culture; parameters: Broth microdilution MIC, bacterial growth inhibition in Mueller-Hinton broth; details: Escherichia coli, read-out: MIC (μg/mL)
# T10 construct: G6
# Experimental: as §2
# [11] = test system: T11, S. aureus 215 (LZD^R + cfr); experiment: microbe, parasite or virus in culture; parameters: Broth microdilution MIC, bacterial growth inhibition in Mueller-Hinton broth; details: Staphylococcus aureus, read-out: MIC (μg/mL)
# T11 construct: 215
# Experimental: as §2
# [12] = test system: T12, Shigella 1F25-27 (tet(X4)); experiment: microbe, parasite or virus in culture; parameters: Broth microdilution MIC, bacterial growth inhibition in Mueller-Hinton broth; details: read-out: MIC (μg/mL)
# T12 construct: 1F25-27 (tet(X4))
# Experimental: as §2
# [13] = test system: T13, Staphylococcus aureus ATCC 29213; experiment: microbe, parasite or virus in culture; parameters: Broth microdilution MIC, bacterial growth inhibition in Mueller-Hinton broth; details: Staphylococcus aureus, ATCC29213, read-out: MIC (μg/mL)
# T13 construct: ATCC 29213
# Experimental: as §2
# [14] = test system: T14, E. coli P10-1 (tet(X4)); experiment: microbe, parasite or virus in culture; parameters: Broth microdilution MIC, bacterial growth inhibition in Mueller-Hinton broth; details: Escherichia coli, read-out: MIC (μg/mL)
# T14 construct: P10-1
# Experimental: as §2
# [15] = test system: T15, Staphylococcus aureus MRSA T144; experiment: microbe, parasite or virus in culture; parameters: Broth microdilution MIC, bacterial growth inhibition in Mueller-Hinton broth; details: Staphylococcus aureus, MRSA, read-out: MIC (μg/mL)
# T15 construct: T144
# Experimental: as §2
# [16] = test system: T16, E. coli P3-1 (tet(X4)); experiment: microbe, parasite or virus in culture; parameters: Broth microdilution MIC, bacterial growth inhibition in Mueller-Hinton broth; details: Escherichia coli, read-out: MIC (μg/mL)
# T16 construct: P3-1
# Experimental: as §2
# [17] = test system: T17, E. coli W7-1 (tet(X4)); experiment: microbe, parasite or virus in culture; parameters: Broth microdilution MIC, bacterial growth inhibition in Mueller-Hinton broth; details: Escherichia coli, read-out: MIC (μg/mL)
# T17 construct: W7-1
# Experimental: as §2
# [18] = test system: T18, E. coli C3 (NDM-1); experiment: microbe, parasite or virus in culture; parameters: Broth microdilution MIC, bacterial growth inhibition in Mueller-Hinton broth; details: Escherichia coli, read-out: MIC (μg/mL)
# T18 construct: C3
# Experimental: as §2
# [19] = test system: T19, Escherichia coli ATCC 25922; experiment: microbe, parasite or virus in culture; parameters: Broth microdilution MIC, bacterial growth inhibition in Mueller-Hinton broth; details: Escherichia coli, ATCC25922, read-out: MIC (μg/mL)
# T19 construct: ATCC 25922
# Experimental: as §2
# [20] = test system: T20, E. coli B3-1 (tet(X4)); experiment: microbe, parasite or virus in culture; parameters: Broth microdilution MIC, bacterial growth inhibition in Mueller-Hinton broth; details: Escherichia coli
# T20 construct: B3-1
# Experimental: as §2
# [21] = test system: T21, Proteus penneri 2F1-3 (tet(X4)); experiment: microbe, parasite or virus in culture; parameters: Broth microdilution MIC, bacterial growth inhibition in Mueller-Hinton broth; details: read-out: MIC (μg/mL)
# T21 construct: 2F1-3 (tet(X4))
# Experimental: as §2
structure (smiles),measurement,setting,value
"Cc1cn([C@H]2C[C@H](N=[N+]=[N-])[C@@H](CO)O2)c(=O)[nH]c1=O [AZI, azidothymidine]",MIC,[1],8 µg/mL
same,MIC,[2],> 32 µg/mL
same,IC50,[3],106 nM
same,MIC,[4],> 16 µg/mL
same,MIC,[5],0.25 µg/mL
same,MIC,[6],> 16 µg/mL
same,MIC,[7],1 µg/mL
same,MIC,[8],0.5 µg/mL
same,MIC,[9],> 16 µg/mL
same,MIC,[10],4 µg/mL
same,MIC,[11],> 16 µg/mL
same,MIC,[12],2 µg/mL
same,MIC,[13],> 16 µg/mL
same,MIC,[14],0.25 µg/mL
same,MIC,[15],> 16 µg/mL
same,MIC,[16],0.5 µg/mL
same,MIC,[17],2 µg/mL
same,MIC,[18],> 16 µg/mL
same,MIC,[19],2 µg/mL
same,MIC,[20]; read-out: MIC (μg/mL),1 µg/mL
same,MIC,[21],8 µg/mL
CN(C)c1cc(NC(=O)CNC(C)(C)C)c(O)c2c1C[C@H]1C[C@H]3[C@H](N(C)C)C(O)=C(C(N)=O)C(=O)[C@@]3(O)C(O)=C1C2=O [Tigecycline],MIC,"[20]; read-out: MHB (MIC, μg/mL)",32 µg/mL
